Patent US20070082915A1 (priority 2003, published 2007)
Like-named read-outs stand apart in the source and are kept apart here.

System: Pyricularia oryzae
Assay type: in vivo
Conditions: individual active compound, protective spray, inoculated next day, rated after 6 days

SMILES	Efficacy in % of the untreated control (1 ppm in the spray liquor)	Efficacy in % of the untreated control (4 ppm in the spray liquor)
CC1CCN(c2c(-c3c(F)cccc3Cl)c(Cl)nc3ncnn23)CC1 [A]	0%	11%
CC(Nc1c(-c2c(F)cc(F)cc2F)c(Cl)nc2ncnn12)C(F)(F)F (centres unmarked) [B]	11%	33%
CC1CCN(c2c(-c3c(F)cc(F)cc3F)c(Cl)nc3ncnn23)CC1 [I, 5-chloro-7-(4-methylpiperidin-1-yl)-6-(2,4,6-trifluorophenyl)-[1,2,4]triazolo[1,5-a]pyrimidine]	11%	33%
CCCC1COC(Cn2cncn2)(c2ccc(Cl)cc2Cl)O1 (centres unmarked) [II, 1-[2-(2,4-dichlorophenyl)-4-propyl-[1,3]dioxolan-2-ylmethyl]-1H-[1,2,4]triazole]	0%	0%
